{"source": "ChEMBL document CHEMBL5537195", "about": "“Novel Covalent Probe Selectively Targeting Glutathione Peroxidase 4 In Vivo: Potential Applications in Pancreatic Cancer Therapy” (J Med Chem, 2024)", "key": {"NCI-H522": {"test_system": "NCI-H522", "test": "Induction of ferroptosis in human NCI-H522 cells assessed as reduction in cell viability incubated for 72 hrs by CCK-8 assay", "format": "functional, cell-based", "conditions": "NCI-H522, 72 h"}, "[1]": {"target": "T1, Phospholipid hydroperoxide glutathione peroxidase GPX4 (Homo sapiens) (UniProt P36969)", "T1 sequence (whole entry)": "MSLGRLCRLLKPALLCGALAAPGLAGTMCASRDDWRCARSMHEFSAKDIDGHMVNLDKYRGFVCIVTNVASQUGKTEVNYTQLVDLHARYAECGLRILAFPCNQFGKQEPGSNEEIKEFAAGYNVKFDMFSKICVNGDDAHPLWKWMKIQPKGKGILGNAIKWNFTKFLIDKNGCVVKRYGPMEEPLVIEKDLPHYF", "test": "Binding affinity to GPX4 in human Capan-2 cells at 0.2 uM incubated for 1 hr by SDS-PAGE analysis", "format": "cell-based"}, "ASPC1 [2]": {"test_system": "ASPC1", "test": "Induction of ferroptosis in human ASPC1 cells assessed as decrease in intracellular GSH level at 5 uM incubated for 5 hrs in presence of […]", "format": "functional, cell-based"}, "[3]": {"target": "T1, Phospholipid hydroperoxide glutathione peroxidase GPX4 (Homo sapiens)", "test": "Binding affinity to GPX4 in human ASPC1 cells assessed as thermal stability at 10 uM at 43 to 64 degreeC for 3 mins by CETSA analysis", "format": "cell-based"}, "ASPC1 [4]": {"test_system": "ASPC1", "test": "Induction of ferroptosis in human ASPC1 cells assessed as cell death at 2 uM in presence of Z-VAD-FMK", "format": "functional, cell-based"}, "ASPC1 [5]": {"test_system": "ASPC1", "test": "Induction of ferroptosis in human ASPC1 cells with siRNA mediated GPX4 knockdown assessed as reduction in cell viability incubated for 72 hrs by CCK-8 assay", "format": "functional, cell-based"}, "ASPC1 [6]": {"test_system": "ASPC1", "test": "Induction of ferroptosis in human ASPC1 cells assessed as reduction in cell viability incubated for 72 hrs followed by compound washout by CCK-8 assay", "format": "functional, cell-based", "conditions": "ASPC1, 72 h"}, "BXPC-3": {"test_system": "BXPC-3", "test": "Antiproliferative activity against human BXPC-3 cells assessed as inhibition of cell growth incubated for 72 hrs by CCK-8 assay", "format": "functional, cell-based", "conditions": "BXPC-3, 72 h"}, "[7]": {"target": "T1, Phospholipid hydroperoxide glutathione peroxidase GPX4 (Homo sapiens)", "test": "Competitive binding affinity to GPX4 (unknown origin) at 0.2 uM incubated for 5 hrs in presence of 4-(((4-(benzo[d]thiazol-2-yl)phenyl)(methyl)amino)methyl)-N-ethynyl-N-methylbenzenesulfonamide by pull-down based Western blot analysis"}, "Homo sapiens": {"organism": "Homo sapiens", "test": "Binding affinity to GPX4 U46C mutant (unknown origin) incubated for 1 hr by pull-down based Western blot analysis", "conditions": "dose 0.2-5 µM"}, "[8]": {"target": "T1, Phospholipid hydroperoxide glutathione peroxidase GPX4 (Homo sapiens)", "test": "Binding affinity to GPX4 in human PANC-1 cells at 0.2 uM incubated for 1 hr by SDS-PAGE analysis", "format": "cell-based"}, "ASPC1 [9]": {"test_system": "ASPC1", "test": "Induction of ferroptosis in human ASPC1 cells assessed as cell death at 2 uM in presence of 3-methyladenine", "format": "functional, cell-based"}, "[10]": {"target": "T1, Phospholipid hydroperoxide glutathione peroxidase GPX4 (Homo sapiens)", "test": "Binding affinity to GPX4 in human HPAC cells at 0.2 uM incubated for 1 hr by SDS-PAGE analysis", "format": "cell-based"}, "[11]": {"target": "T2, Fructose-bisphosphate aldolase A (Homo sapiens) (UniProt P04075)", "T2 sequence (whole entry)": "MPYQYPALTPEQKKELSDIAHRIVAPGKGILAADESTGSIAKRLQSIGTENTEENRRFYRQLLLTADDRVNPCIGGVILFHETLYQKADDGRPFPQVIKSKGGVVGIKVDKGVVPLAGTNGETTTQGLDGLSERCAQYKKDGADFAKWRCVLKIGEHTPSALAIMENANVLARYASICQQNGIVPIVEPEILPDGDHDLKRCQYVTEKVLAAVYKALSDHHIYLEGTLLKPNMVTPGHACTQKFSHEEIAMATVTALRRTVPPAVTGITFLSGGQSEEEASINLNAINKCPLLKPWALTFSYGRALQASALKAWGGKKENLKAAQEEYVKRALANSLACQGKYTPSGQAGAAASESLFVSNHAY", "test": "Binding affinity to ALDOA in human ASPC1 cells at 1 uM incubated for 5 hrs by Western blot analysis", "format": "cell-based"}, "[12]": {"target": "T1, Phospholipid hydroperoxide glutathione peroxidase GPX4 (Homo sapiens)", "test": "Binding affinity to GPX4 in human MIA PaCa-2 cells at 0.2 uM incubated for 1 hr by SDS-PAGE analysis", "format": "cell-based"}, "[13]": {"target": "T1, Phospholipid hydroperoxide glutathione peroxidase GPX4 (Homo sapiens)", "test": "Competitive binding affinity to GPX4 in human ASPC1 cells at 0.2 uM incubated for 1 hr in presence of ML210", "format": "cell-based"}, "[14]": {"test": "Toxicity in NOD-SCID mouse xenografted with human ASPC1 cells assessed as body weight loss at 10 mg/kg, ip administered for once daily for 14 days", "format": "organism-based", "conditions": "in vivo, 336 h, time 14 day"}, "[15]": {"target": "T1, Phospholipid hydroperoxide glutathione peroxidase GPX4 (Homo sapiens)", "test": "Binding affinity to GPX4 in human CFPAC-1 cells at 0.2 uM incubated for 1 hr by SDS-PAGE analysis", "format": "cell-based"}, "[16]": {"target": "Large ribosomal subunit protein eL28 (Homo sapiens) (UniProt P46779)", "test": "Binding affinity to RL28 in human ASPC1 cells at 1 uM incubated for 5 hrs by Western blot analysis", "format": "cell-based"}, "[17]": {"target": "T1, Phospholipid hydroperoxide glutathione peroxidase GPX4 (Homo sapiens)", "test": "Competitive binding affinity to GPX4 in human ASPC1 cells at 0.2 uM incubated for 1 hr in presence of 4-(((4-(benzo[d]thiazol-2-yl)phenyl)(methyl)amino)methyl)-N-ethynyl-N-methylbenzenesulfonamide", "format": "cell-based"}, "ASPC1 [18]": {"test_system": "ASPC1", "test": "Induction of ferroptosis in human ASPC1 cells assessed as reduction in cell viability incubated for 24 hrs followed by compound washout by CCK-8 assay", "format": "functional, cell-based", "conditions": "ASPC1, 24 h"}, "[19]": {"target": "T1, Phospholipid hydroperoxide glutathione peroxidase GPX4 (Homo sapiens)", "test": "Binding affinity to GPX4 in human BXPC-3 cells at 0.2 uM incubated for 1 hr by SDS-PAGE analysis", "format": "cell-based"}, "[20]": {"target": "T1, Phospholipid hydroperoxide glutathione peroxidase GPX4 (Homo sapiens)", "test": "Binding affinity to GPX4 in human ASPC1 cells at 0.2 uM by SDS-PAGE analysis", "format": "cell-based", "conditions": "time 0.1 hrs, TDE = time-dependent effect"}, "[21]": {"test": "Cmax in Sprague-Dawley rat at 2 mg/kg, iv measured upto 48 hrs by LC-MS/MS analysis", "format": "ADME, organism-based", "conditions": "in vivo"}, "[22]": {"test": "Toxicity in NOD-SCID mouse xenografted with human ASPC1 cells assessed as mortality at 10 mg/kg, ip administered for once daily for 14 days", "format": "organism-based", "conditions": "in vivo, 336 h, time 14 day"}, "ASPC1 [23]": {"test_system": "ASPC1", "test": "Antitumor activity against human ASPC1 cells xenografted in NOD-SCID mouse assessed as reduction in tumor weight at 10 mg/kg, ip administered for 14 days", "format": "functional, organism-based", "conditions": "time 14.0 day"}, "ASPC1 [24]": {"test_system": "ASPC1", "test": "Induction of ferroptosis in human ASPC1 cells assessed as reduction in cell viability incubated for 48 hrs followed by compound washout by CCK-8 assay", "format": "functional, cell-based", "conditions": "ASPC1, 48 h"}, "ASPC1 [25]": {"test_system": "ASPC1", "test": "Antitumor activity against human ASPC1 cells xenografted in NOD-SCID mouse assessed as reduction in tumor volume at 10 mg/kg, ip administered for 14 days", "format": "functional, organism-based", "conditions": "time 14.0 day"}, "ASPC1 [26]": {"test_system": "ASPC1", "test": "Induction of ferroptosis in human ASPC1 cells assessed as effect on ROS level at 1 uM incubated for 3 hrs in absence of […]", "format": "functional, cell-based"}, "HCT-116": {"test_system": "HCT-116", "test": "Induction of ferroptosis in human HCT-116 cells assessed as reduction in cell viability incubated for 72 hrs by CCK-8 assay", "format": "functional, cell-based", "conditions": "HCT-116, 72 h"}, "[27]": {"target": "T1, Phospholipid hydroperoxide glutathione peroxidase GPX4 (Homo sapiens)", "test": "Competitive binding affinity to GPX4 in human ASPC1 cells at 0.2 uM incubated for 1 hr in presence of ML210 by immunofluorescence based confocal microscopic analysis", "format": "cell-based"}}, "note": "The source made the active and inactive calls. The rule behind the calls is not given here."}
{"compound": "C#CCN(Cc1ccc(S(=O)(=O)N(C)C#C)cc1)c1ccc(-c2nc3ccccc3s2)cc1", "values": [{"measurement": "IC50", "setting": "NCI-H522", "value": 3, "unit": "nM"}, {"measurement": "Activity", "setting": "[1]", "value": "inactive"}, {"measurement": "Activity", "setting": "ASPC1 [2]", "value": "Active"}, {"measurement": "Activity", "setting": "[3]", "value": "Active"}, {"measurement": "Activity", "setting": "ASPC1 [4]", "value": "inactive"}, {"measurement": "Activity", "setting": "ASPC1 [5]", "value": "Active"}, {"measurement": "IC50", "setting": "ASPC1 [6]", "value": 29, "unit": "nM"}, {"measurement": "IC50", "setting": "BXPC-3", "value": 20, "unit": "nM"}, {"measurement": "Activity", "setting": "[7]", "value": "Active"}, {"measurement": "Activity", "setting": "Homo sapiens", "value": "Active"}, {"measurement": "Activity", "setting": "[8]", "value": "Active"}, {"measurement": "Activity", "setting": "ASPC1 [9]", "value": "inactive"}, {"measurement": "Activity", "setting": "[10]", "value": "Active"}, {"measurement": "Activity", "setting": "[11]", "value": "Active"}, {"measurement": "Activity", "setting": "[12]", "value": "Active"}, {"measurement": "Activity", "setting": "[13]", "value": "Active"}, {"measurement": "Activity", "setting": "[14]", "value": "Non-Toxic"}, {"measurement": "Activity", "setting": "[15]", "value": "Active"}, {"measurement": "Activity", "setting": "[16]", "value": "Active"}, {"measurement": "Activity", "setting": "[17]", "value": "Active"}, {"measurement": "IC50", "setting": "ASPC1 [18]", "value": 62, "unit": "nM"}, {"measurement": "Activity", "setting": "[19]", "value": "Active"}, {"measurement": "Activity", "setting": "[20]", "value": "Tde"}, {"measurement": "Cmax", "setting": "[21]", "value": 2250, "unit": "ng/mL"}, {"measurement": "Activity", "setting": "[22]", "value": "Non-Toxic"}, {"measurement": "Activity", "setting": "ASPC1 [23]", "value": "Active"}, {"measurement": "IC50", "setting": "ASPC1 [24]", "value": 33, "unit": "nM"}, {"measurement": "Activity", "setting": "ASPC1 [25]", "value": "Active"}, {"measurement": "Activity", "setting": "ASPC1 [26]", "value": "Active"}, {"measurement": "IC50", "setting": "HCT-116", "value": "> 10000", "unit": "nM"}, {"measurement": "Activity", "setting": "[27]", "value": "inactive"}]}
